Source: patent publication US12544373B2, “Treatment of cancer, inflammatory diseases and autoimmune diseases” (Usher III Initiative, Inc., priority 2020, dated 2026)
Read-outs that look alike come from different tables or passages of the source.

What was measured:
Assay type in all cases: cell-based, human
[1] = system: CNXF 498; test: CellTiter-Blue 2D monolayer assay (Example 1), glioblastoma; details: for Test/Control (%): 72 h
Experimental: (§1) Compound 85 was assessed in 10 human tumor cell lines (see Table 3) for anti-cancer activity in vitro using a CellTiter-Blue® based 2D monolayer assay.
(§2) CellTiter-Blue® Cell Viability Assay: Tumor cells were grown at 37° C. in a humidified atmosphere with 5% CO2 in RPMI medium, supplemented with 10% (v/v) fetal calf serum and 50 μg/ml gentamicin (140 μl/well). Cultures were incubated at 37° C. and 5% CO2 in a humidified atmosphere. After 24 hours, 10 μl of Compound 85 was added, and left on the cells for another 72 hours (incubation period). Compound 85 was tested at 5 concentrations (0.003 μM, 0.03 μM, 0.3 μM, 3 μM, and 30 μM) and serially diluted in DMSO, mixed with cell culture medium, and added to the assay plates by using a Tecan Freedom EVO 200 robotic platform. The DMSO concentration was kept constant at 0.3% yip across the assay plate. Every 96 well plate included six DMSO-treated control wells and Compound 85-treated wells in duplicate at 5 concentrations. Viability of cells was quantified using the CellTiter-Blue® cell viability assay (Promega G8081). After incubation of cells, the CellTiter-Blue® reagent was brought to ambient temperature. Next, 20 μl of CellTiter-Blue® reagent were added to each well. After incubation tier up to 4 hours, fluorescence (FU) was measured using the EnSpire® multimode plate reader (Perkin Elmer) ([…]).
(§3) Data Evaluation: Sigmoidal concentration-response curves were fitted to the data points (test-versus-control; T/C values) obtained for each tumor model using 4 parameter non-linear curve fit (Charles River DRS Datawarehouse Software). Drug effects are expressed in terms of the percentage of the fluorescence signal, obtained by comparison of the mean signal in the treated wells with the mean signal of the untreated controls (T/C-value [%]) (Table 4). IC50 and IC70 values were reported as relative and absolute IC50 and IC70 values (Table 5). The absolute IC50 and IC70 values reflect the concentration of Compound 85 that achieves T/C=50% and T/C=30%, respectively. The relative IC50 value is the concentration of Compound 85 that gives a response half way between the top and bottom plateau of the sigmoidal concentration-response curve (inflection point of the curve).

[2] = system: CNXF U-87 MG; test: as above; details: for Test/Control (%): 72 h
Experimental: as §1, §2, §3

[3] = system: CXF HCC-2998; test: CellTiter-Blue Cell Viability Assay (Example 2), colon; details: for T/C %: 72 h
From the text: (§4) The CellTiter-Blue® Cell Viability Assay was used to assess the viability of cells from various cancer cell lines, in the presence or absence of Compound 85 (at different concentrations). This assay provides a homogeneous, fluorometric method for estimating the number of viable cells present in multi-well plates. Viable cells retain the ability to reduce resazurin to resorufin, which is highly fluorescent. […] The fluorescence produced is proportional to the number of viable cells. There is a linear relationship between cell number and fluorescence.
(§5) Cancer cells (see Table 6) were harvested from exponential phase cultures, counted and plated in 96 well flat-bottom microtiter plates, at a cell density 6,000-20,000 cells/well, depending on the cell line's growth rate. The culture medium was supplemented with 10% (v/v) foetal calf serum and 50 μg/mL gentamicin (140 μL/well). Cultures were incubated at 37° C. and 5% CO2 in a humidified atmosphere.
(§6) Compound 85 was serially diluted in DMSO, and five Compound 85 concentrations in half-log increments were used: 0.03 μM, 0.09 μM, 0.30 μM, 1.0 μM, and 3.0 μM. After 24 h, 10 μL of Compound 85 (dissolved in DMSO) or control (DMSO) medium were added, in duplicates, and left on the cells for another 72 h. Compound 85 solutions were added to the assay plates using a Tecan Freedom EVO 200 robotic platform. The DMSO concentration was kept constant at 0.3% v/v across the assay plate.
(§7) After incubation of up to 72 hours, fluorescence (FU) was measured using the EnSpire® multimode plate reader (Perkin Elmer) (excitation λ=570 nm, emission λ=600 nm).
(§8) Cancer cell lines used: Compound 85's anti-cancer effect was tested in 20 human cancer-cell lines representing nine cancer types (Table 6).
(§9) The percentage of viable cells in the presence of Compound 85 (Test condition, T), at different concentrations, are presented in Table 7 and expressed as a percentage of the number of viable cells in the presence of DMSO without Compound 85 (Control condition, C).
(§10) The relative IC50 is determined as the Compound 85 concentration giving a response halfway between the maximum cell viability signal (i.e., a 100% cell viability, no Compound 85 response) and the minimal viability signal (i.e. maximum cell viability inhibition achieved by Compound 85), in a sigmoidal concentration-effect curve.
(§11) The absolute IC50 is determined as the concentration that is associated with a T/C ratio of 50%.

[4] = system: CXF LS 174T; test: as above; details: for T/C %: 72 h
From the text: as §4, §5, §6, §7, §8, §9, §10, §11

[5] = system: PRXF DU-145; test: CellTiter-Blue Cell Viability Assay (Example 2), prostate; details: for T/C %: 72 h
From the text: as §4, §5, §6, §7, §8, §9, §10, §11

[6] = system: PRXF PC-3; test: as above; details: for T/C %: 72 h
From the text: as §4, §5, §6, §7, §8, §9, §10, §11

## CC(C)(O)Cn1nc(-c2ccccc2)c2c(Cl)c(-c3ccccc3)nnc21 [Compound 85]
[1]
  Rel. IC70: 1868 nM
[1]; 0.003 μM
  Test/Control (%): 106%
[1]; 0.03 μM
  Test/Control (%): 107%
[1]; 0.3 μM
  Test/Control (%): 113%
[1]; 3 μM
  Test/Control (%): 2%
[1]; 30 μM
  Test/Control (%): 1%
[1]; T/C=30%
  Abs. IC70: 1901 nM
[1]; T/C=50%, read-out: Abs. IC50
  IC50: 1740 nM
[1]; bottom plateau of curve
  Bot. (%): 1%
[1]; read-out: Rel. IC50
  IC50: 1710 nM
[1]; top plateau of curve
  Top (%): 109%
[2]
  Rel. IC70: 987 nM
[2]; 0.003 μM
  Test/Control (%): 99%
[2]; 0.03 μM
  Test/Control (%): 102%
[2]; 0.3 μM
  Test/Control (%): 102%
[2]; 3 μM
  Test/Control (%): 1%
[2]; 30 μM
  Test/Control (%): 4%
[2]; T/C=30%
  Abs. IC70: 994 nM
[2]; T/C=50%, read-out: Abs. IC50
  IC50: 940 nM
[2]; bottom plateau of curve
  Bot. (%): 3%
[2]; read-out: Rel. IC50
  IC50: 935 nM
[2]; top plateau of curve
  Top (%): 101%
[3]
  Absolute IC70: 1125 nM
  Relative IC70: 891 nM
[3]; 0.03 μM
  T/C %: 98%
[3]; 0.095 μM
  T/C %: 99%
[3]; 0.3 μM
  T/C %: 98%
[3]; 0.95 μM
  T/C %: 40%
[3]; 3.0 μM
  T/C %: 22%
[3]; read-out: Absolute IC50
  IC50: 844 nM
[3]; read-out: Relative IC50
  IC50: 765 nM
[4]
  Absolute IC70: 474 nM
  Relative IC70: 467 nM
[4]; 0.03 μM
  T/C %: 96%
[4]; 0.095 μM
  T/C %: 96%
[4]; 0.3 μM
  T/C %: 72%
[4]; 0.95 μM
  T/C %: 5%
[4]; 3.0 μM
  T/C %: 3%
[4]; read-out: Absolute IC50
  IC50: 383 nM
[4]; read-out: Relative IC50
  IC50: 384 nM
[5]
  Absolute IC70: 1528 nM
  Relative IC70: 1376 nM
[5]; 0.03 μM
  T/C %: 100%
[5]; 0.095 μM
  T/C %: 110%
[5]; 0.3 μM
  T/C %: 102%
[5]; 0.95 μM
  T/C %: 11%
[5]; 3.0 μM
  T/C %: 6%
[5]; read-out: Absolute IC50
  IC50: 1090 nM
[5]; read-out: Relative IC50
  IC50: 1010 nM
[6]
  Absolute IC70: 1349 nM
  Relative IC70: 1326 nM
[6]; 0.03 μM
  T/C %: 104%
[6]; 0.095 μM
  T/C %: 103%
[6]; 0.3 μM
  T/C %: 103%
[6]; 0.95 μM
  T/C %: 2%
[6]; 3.0 μM
  T/C %: 1%
[6]; read-out: Absolute IC50
  IC50: 1100 nM
[6]; read-out: Relative IC50
  IC50: 1080 nM
